Laboratory results as given in BindingDB's records for patent US20250215017 (Medinno Pharmaceutical Technology (Zhuhai) Co., 2025).

Biological target: T1, TGF-beta receptor type-1 (Homo sapiens, UniProt P36897)
T1 sequence (P36897 whole entry): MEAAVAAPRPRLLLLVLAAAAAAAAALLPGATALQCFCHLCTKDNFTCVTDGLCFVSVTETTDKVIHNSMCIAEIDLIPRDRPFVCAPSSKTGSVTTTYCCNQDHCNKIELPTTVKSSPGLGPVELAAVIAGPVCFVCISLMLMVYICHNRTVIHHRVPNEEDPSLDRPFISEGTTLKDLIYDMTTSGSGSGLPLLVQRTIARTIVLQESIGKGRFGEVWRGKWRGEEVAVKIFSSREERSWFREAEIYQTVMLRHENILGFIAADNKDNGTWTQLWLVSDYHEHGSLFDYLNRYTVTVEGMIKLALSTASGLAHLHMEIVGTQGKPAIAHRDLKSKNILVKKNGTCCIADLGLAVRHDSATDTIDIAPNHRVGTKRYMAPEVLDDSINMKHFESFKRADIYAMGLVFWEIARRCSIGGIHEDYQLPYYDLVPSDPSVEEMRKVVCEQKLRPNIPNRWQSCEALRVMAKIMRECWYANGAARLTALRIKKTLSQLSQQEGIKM
Assay: ADP-Glo Kinase Assay
Description: The principle of the activity assay was that TGFβR1 phosphorylates the substrate TGFβR1tide, consuming ATP in the process. […] The specific experimental steps were as follows. Compounds were diluted 4-fold in DMSO in a dilution plate, with the final starting concentration of the compounds being 10 μM, across 10 concentration gradient points. The compounds were then further diluted 50-fold into the kinase reaction buffer and incubated on a shaker for 20 minutes. Kinase was formulated with an enzyme reaction buffer. 2 μl kinase was added to each well of the reaction plate. 1 μl of the compound diluted in buffer was added to each well, and then the plate was sealed with a sealing membrane and centrifuged at 1000 g for 30 seconds, leaving it at room temperature for 10 minutes. Solutions of TGFβR1tide and ATP were prepared with the kinase reaction buffer, and 2 μL of the TGFβR1tide/ATP solution was added to the reaction plate. The plate was sealed with a sealing film and centrifuged at 1000 g for 30 seconds. It was allowed to react at room temperature for 60 minutes. Subsequently, 4 μL of ADP-Glo was transferred to a 384-well reaction plate and centrifuged at 1000 rpm/min for 1 minute, followed by incubation at 25° C. for 40 minutes. […] The RLU (Relative Luminescence Unit) signal was read using a BMG microplate reader, which was used to characterize the degree of kinase activity.

- IC50: 1.1 nM
SMILES: Cc1cccc(-c2n[nH]cc2-c2ccnc(-c3nc4c([nH]3)CN(C(=O)N3CCN(C)CC3)C4)c2)n1 [US20250215017, Compound 7]
